Test results taken from US20210101905A1, “Development of Imaging and Therapeutic Glucose Analogues for Sodium Dependent Glucose Transporters” (Llnited States Government as represented by the Department …, priority 2019, published 2021).

Experiments:
[1] = test system: metastatic prostate cancer; details: men with metastatic prostate cancer, phase III; cited from earlier work
[2] = test system: SGLTs and GLUTs; details: prior work; cited from earlier work
[3] = rat, in vivo; cited from earlier work
[4] = test system: PC-3; test: 6FGA uptake in PC-3 cells, with and without transporter inhibitors or sodium; format: cell-based, human; details: PC3 cell line
Procedure: See FIG. 2A-D. Its transport properties were evaluated in two human metastatic cancer cell lines: triple negative breast cancer MDA-MB-231 and human prostate cancer (PC-3). […] See also FIG. 5A, FIG. 5B, and FIG. 6.
The assays are performed from a modified protocol as we have done previously, and from flow cytometry formats (Zou ry al. (2005) J Biochem Biophys Methods 64:207-15; Landau et al. (2007) American journal of physiology Endocrinology and metabolism 293:E237-45). In brief, cells are grown to confluence using recommended growth media in 96-well plates. […] The cells are detached with trypsin and resuspended in PBS. The cells are analysed using flow cytometry with the Cy5.5 filter set (excitation 685 nm, exmission 710 nm) gated for 250,000 counts.

Structure (SMILES)	transport by SGLTs / GLUTs [2]	effect of inhibitor on 6FGA uptake [4]	other results
[Cl][223Ra][Cl] [Xofigo, ^223RaCl2]			adverse events [1]: low rates of myelosuppression and few adverse events; overall survival [1]: improve overall survival
O=C[C@H](O)[C@@H](O)[C@H](O)[C@H](O)C[18F] [[18F]6FDG, 18F-labelled 6-fluoro-6-deoxy-D-glucose]	transported by SGLTs and GLUTs		activity in the bladder [3]: no activity was evident in the bladder; renal handling [3]: reabsorbed in proximal tubules of kidneys
OC[C@H]1OC(O)[C@H]([18F])[C@@H](O)[C@@H]1O (stereo partly drawn) [[^18F]FDG, ^18F-labeled 2-fluoro-2-deoxy-D-glucose]	poorly transported by SGLTs		
C=C1[C@@H](C)[C@H]2[C@H](Cc3ccccc3)NC(=O)[C@]23OC(=O)/C=C/[C@H](O)CCC[C@@H](C)C/C=C/[C@H]3[C@@H]1O [cytochalasin B]		not blocked	
O=C(CCc1ccc(O)cc1)c1c(O)cc(O)cc1O[C@@H]1O[C@H](CO)[C@@H](O)[C@H](O)[C@H]1O [phlorizin]		blocked	
